Assay results from publication PMC9605737, “Identification of 6ω-cyclohexyl-2-(phenylamino carbonylmethylthio)pyrimidin-4(3H)-ones targeting the ZIKV NS5 RNA dependent RNA polymerase” (Frontiers in Chemistry, 2022).

How the values were obtained:
[1] = test system: ZIKV; assay: Four different methods of drug treatment (virus, co-, pre-, post-treatment); type: cell-based, Zika virus; conditions: viral load
Source text: (§1) ZIKV RdRp was a important domain in the C-terminal of ZIKV NS5, and plays a crucial role in the replication and synthesis of RNA in the life cycle of ZIKV. In order to further verify that 4w activity is related to RdRp domain inhibition, we examined the effect of 4w on the replication cycle of ZIKV using four different drug treatments and time-sharing withdrawal experiments (Figure 7A).
As mentioned above ([Duan et al., 2019]; [Zou et al., 2020]), according to the different life cycles of the ZIKV, four different drug treatment methods are set: virus treatment, co-treatment, pre-treatment, post-treatment. For virus treatment, the ZIKV and 4w were pre-treated in a 4°C refrigerator for 1 h, then the treated virus was added to the cells for 2 h of infection, and the virus was discarded, washed twice with PBS, and added to maintenance medium (containing 2% FBS DMEM high sugar medium), continue to culture at 37°C, 5% CO2 incubator for 3 days, collect the cell supernatant for RT-PCR and plaque experiments. For co-treatment: add 4w and ZIKV to the cells at the same time, incubate at 37°C, 5% CO2 for 2 h, then remove the virus and compounds, add maintenance medium for 3 days. Pre-treatment: Compound 4w and cells were treated at 4°C for 1 h, then 4w was removed, ZIKV was added for 2 h, remove virus and the maintenance medium was added to continue culturing for 3 days. […]

[2] = test system: ZIKV; assay: Time of drug withdrawal experiment; type: cell-based, Zika virus; conditions: 50 μM, drug withdrawal 4–6 h after dosing, viral load after 24 h
Description: as §1
The virus was added to the cells and adsorbed for 2 h at 4°C, then the unabsorbed virus was washed away with pre-cooled PBS, and 50 μM 4w was added at the same time. Withdraw the drug at 1, 2, 4, 6, 8, and 12 h after dosing. The cell supernatant was collected for viral load detection after the maintenance medium continued to culture for 24 h.

[3] = test system: ZIKV RNA; assay: qRT-PCR viral load in supernatant of ZIKV-infected Huh7 cells; type: cell-based; conditions: Zika virus, Huh-7, read-out: EC50, inhibition of ZIKV RNA replication
Source text: In order to re-verify the inhibitory effect of 4w on ZIKV at the molecular level, we used ZIKV to infect cell lines of different origins (A549, Vero, Huh7 cells) and then treated with 4w in a concentration gradient. The change of viral load in the supernatant of cells after treatment was detected by qRT-PCR method.
Cells were infected with ZIKV SZ-WIV01 and then treated with 4w. The viral load in the supernatant was detected by Quantitative real-time polymerase chain reaction (qRT-PCR) at in different time periods after infection. Then the RNA from culture supernatant was extracted using the EasyPure ® Viral DNA/RNA Kit (TransGen Biotech, China) following the manufacturer’s instructions. Intracellular RNA extraction was according to trizol method. A one-step qRT-PCR kit RNA-direct™ Realtime PCR Master Mix (TOYOBO, Japan) and TaqMan probe were used to quantify the viral RNA produced. The primers (NS5 ZIKV 1086F: 5′-CCGCTGCCCAACACAAG-3′ and NS5 ZIKV 1086R: 3′-[…] C-5′) and probe (5′-FAM-[…]-TAMRA -3′) were used for amplification of the ZIKV NS5 region. A standard curve of the serial dilutions was used to quantify the viral RNA yield.
The 50% effective concentration (EC50) and 50% cytotoxic concentration (CC50) of the compound were calculated according to the Reed and Muench method, inhibition rate of ZIKV RNA yield- [(1-drug treatment/positive control) × 100]. […]

## CCc1c(C2CCCCC2)nc(SCC(=O)Nc2cc(F)cc(F)c2)[nH]c1=O [Compound 4w, 2-{[4-cyclohexyl-5-ethyl-6-oxo-1,6-dihydropyrimidin-2-yl]thio}-N-(3,5-difluorophenyl)acetamide]
[1]
  stage of the ZIKV replication cycle acted on: mainly acts on the post-entry stage of the virus
[2]
  effect of drug withdrawal on release of progeny virus: significantly inhibit the release of progeny virus
[3]
  EC50: 6.76 ± 0.52 µM
